Data set [1] deals with allergic skin disease model (atopic dermatitis model) mouse derived by oxazolone. Description: Oxazolone-derived allergic skin disease (atopic dermatitis) model mouse: naked-eye observation and Hematoxylin and Eosin staining of ear skin. Type of data set: in vivo. The procedure:
(§1) Specifically, 150 μl of 3% 4-ethoxymethylene-2-phenyl-2-oxazolin-5-one (oxazolone) was applied on an abdominal skin of a 6-week-old laboratory animal to induce an immune response, and 20 μl of the same compound diluted to 0.1% was applied on the ear of a laboratory animal 3 times a week (total 6 times) to induce a skin disease. The ear of the laboratory animal was treated with 20 μl of the colchicine according to the present invention at a concentration of 0.05% 3 times a week (total 6 times). A negative control group treated with only ethanol which was a solvent and a positive control group treated with only oxazolone were also reflected in the experiment. The number of mice in each experiment group was maintained at 10 or more and the experiment was repeated 3 times.
In addition, for pathological observation of skin after completing the application, an ear skin tissue of each mouse was collected and stained with Hematoxylin and Eosin, and the results are shown in FIG. 4.

Another data set has as its system interleukin-13 (IL-13). Nature of the data set: Inflammatory cytokine expression in skin tissue of oxazolone model (qPCR), IL-13. Type of data set: in vivo, mouse. The note with it: group treated with both colchicine (0.05%) and oxazolone, compared with oxazolone treatment, FIG. 5. On the procedure: as §1
(§2) After completing the application experiment of Example 2, a skin tissue was collected from each mouse and crushed with a tissue crusher to extract RNA. The crushed tissue powder was dissolved in a Trizol reagent solution (Sigma) and RNA was extracted using a RNeasy mini kit (Qiagen). The extracted RNA was reverse-transcribed to cDNA using ImProm-II™ Reverse Transcription kit (Promega), and then a cytokine degree present in the skin tissue was measured by a quantitative PCR (qPCR) method using CFX96™ Real-Time PCR Detection System (Bio-Rad). […]

Another data set has as its system filaggrin. Description: Filaggrin expression in mouse skin tissue after colchicine application (qPCR). Type of data set: in vivo, mice. The note with it: 0.04% (w/w) and 0.1% (w/w) applied on back and ear skin twice a week for 4 weeks or more, FIG. 1. The procedure: Specifically, colchicine was continuously applied on back and ear skin areas of laboratory mice at a low concentration of 0.04% (w/w) and at a high concentration of 0.1% (w/w) twice a week for 4 weeks or more. After completing the application experiment, a skin tissue was collected from each mouse and crushed with a tissue crusher to extract RNA. The crushed tissue powder was dissolved in a Trizol reagent solution (Sigma) and RNA was extracted using a RNeasy mini kit (Qiagen). The extracted RNA was reverse-transcribed to cDNA using IMPROM-II™ Reverse Transcription kit (Promega), and then an amount of filaggrin present in the skin tissue was measured by a quantitative PCR (qPCR) method using CFX96™ Real-Time PCR Detection System (Bio-Rad).

Another data set relates to interleukin-4 (IL-4). Nature of the data set: Inflammatory cytokine expression in skin tissue of oxazolone model (qPCR), IL-4. Type of data set: in vivo, mouse. The note with it: group treated with both colchicine (0.05%) and oxazolone, compared with oxazolone treatment, FIG. 5. On the procedure:
as §1, §2

Data set [2] in a line: Moisture loss, skin barrier index and composite index by transdermal moisture loss meter (Tewameter). Type of data set: in vivo, mice. The procedure: Colchicine was continuously applied on back and ear skin areas of laboratory mice at concentration of 0.05% (w/w) twice a week for 4 weeks or more, and then a moisture loss and skin barrier and composite indexes were measured by a transdermal moisture loss meter (Tewameter).
The experiment results are shown in FIG. 2, and were compared with an experiment animal group with no colchicine applied.

Setting [3] is: 20 μl of 0.05% colchicine on ear, total 6 times, with oxazolone treatment, H&E staining of ear skin, FIG. 4.
Setting [4] is: 0.05% (w/w) on back and ear skin twice a week for 4 weeks or more, Tewameter, vs group with no colchicine applied, FIG. 2.

The structures appear in SMILES notation.

With `COc1cc2c(c(OC)c1OC)-c1ccc(OC)c(=O)cc1[C@@H](NC(C)=O)CC2` [colchicine], the “skin condition observed with the naked eye (ear)” value in data set [1] (20 μl of 0.05% colchicine on ear 3 times a week (total 6 times), simultaneously with oxazolone, FIG. 3) was “very similar to that of a normal group treated with only a solvent”. Also, in data set [1] (setting [3]), the epithelial thickness result is given as “decreased to a degree very similar to the normal case” and the total skin thickness entry is listed as “decreased to a degree very similar to the normal case”. Also, the skin abnormal symptom entry in data set [1] (control group treated with only colchicine, H&E staining of ear skin) is reported as “not detected”. Besides, in the data set with interleukin-13 (IL-13), the “expression level of IL-13 in skin tissue” value is recorded as at most 50%. Further, the “expression amount of filaggrin” value in the data set with filaggrin was “increased an expression amount of filaggrin concentration-dependently”. For the same molecule, in the data set with interleukin-4 (IL-4), the “expression level of IL-4 in skin tissue” value is reported as at most 50%. For the same molecule, in data set [2] (setting [4]), the skin barrier index result is listed as “greatly increased”, the skin composite index result is on record as “greatly increased” and the skin moisture loss entry was “decreased”. Besides, the “side effect with long-term application” value in data set [2] (skin application to mice for 4 weeks or more) is on record as “without any side effect”.

These data come from patent publication US20220151959A1, “METHOD FOR TREATING ALLERGIC SKIN DISEASE OR PRURITUS CUTANEOUS” (KOREA RESEARCH INSTITUTE OF BIOSCIENCE AND BIOTECHNOLOGY, priority 2019, published 2022).
